IC50 and inhibition data for 34 molecules are collected here from patent US8168651B2, “Protein kinase modulators” (Cylene Pharmaceuticals, Inc., priority 2008, dated 2012).

The test system of one experiment is K-562. The experiment can be described thus: Cell proliferation modulatory activity, K-562. The class given is cell-based. The settings on record: Homo sapiens, K562; K-562 cells.
The next experiment addresses recombinant human PIM1 (Homo sapiens (Human), UniProt P11309). Description: PIM-1 kinase activity in cell-free in vitro assay. The class given is biochemical. As to conditions: cell-free assay; for inhibition at 0.5 µM: 500 nM compound, read-out: PIM-1: % inh 500 nM.
The subject of experiment [1] is HCT-116 human colorectal carcinoma cells. The experiment can be described thus: Cell-proliferation assay using Alamar Blue dye.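 Note: cells exposed to compound for about 4 days, then Alamar Blue added and dye fluorescence read after about 4 h, compared with medium-only control wells.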 The format is cell-based. As to conditions: Homo sapiens, HCT-116, second HCT-116 column (c8); read-out: HCT-116 (uM) cell proliferation modulatory activity.
In the next experiment the target is recombinant human CK2 (Homo sapiens (Human), UniProt P68400). The experiment can be described thus: CK2 assay (cell-free, 33P-ATP filter plate). The format is biochemical. As to conditions: 500 nM compound, cell-free assay; read-out: CK2: % inh 500 nM.
Another experiment has as its system MV-4-11. The experiment can be described thus: Cell proliferation modulatory activity, MV-4-11. The format is cell-based. As to conditions: Homo sapiens, MV4-11; MV-4-11 cells.

Molecules are shown by their SMILES. A value given as a limit tells only on which side of the number the result lay.

recombinant human PIM1, sequence (P11309 whole entry): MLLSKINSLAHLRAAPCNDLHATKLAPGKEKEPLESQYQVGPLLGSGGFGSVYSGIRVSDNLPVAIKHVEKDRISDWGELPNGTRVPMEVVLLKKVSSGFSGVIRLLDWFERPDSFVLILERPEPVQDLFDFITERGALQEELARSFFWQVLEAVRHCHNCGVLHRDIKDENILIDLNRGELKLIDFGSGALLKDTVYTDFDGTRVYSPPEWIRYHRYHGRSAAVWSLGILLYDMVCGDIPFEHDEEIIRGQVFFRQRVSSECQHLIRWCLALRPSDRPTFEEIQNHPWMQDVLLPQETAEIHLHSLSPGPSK
recombinant human CK2, sequence (P68400 whole entry): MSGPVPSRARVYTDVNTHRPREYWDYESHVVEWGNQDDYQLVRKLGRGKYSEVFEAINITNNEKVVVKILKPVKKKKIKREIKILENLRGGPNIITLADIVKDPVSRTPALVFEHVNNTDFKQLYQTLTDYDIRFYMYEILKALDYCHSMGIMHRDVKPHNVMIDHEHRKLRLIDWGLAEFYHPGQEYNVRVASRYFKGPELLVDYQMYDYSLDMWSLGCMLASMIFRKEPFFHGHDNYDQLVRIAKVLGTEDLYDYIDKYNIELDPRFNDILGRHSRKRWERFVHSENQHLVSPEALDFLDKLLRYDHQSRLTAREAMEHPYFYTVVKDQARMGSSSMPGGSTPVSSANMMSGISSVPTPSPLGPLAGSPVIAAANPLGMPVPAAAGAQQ
recombinant human CK2, sequence (P67870 whole entry partner): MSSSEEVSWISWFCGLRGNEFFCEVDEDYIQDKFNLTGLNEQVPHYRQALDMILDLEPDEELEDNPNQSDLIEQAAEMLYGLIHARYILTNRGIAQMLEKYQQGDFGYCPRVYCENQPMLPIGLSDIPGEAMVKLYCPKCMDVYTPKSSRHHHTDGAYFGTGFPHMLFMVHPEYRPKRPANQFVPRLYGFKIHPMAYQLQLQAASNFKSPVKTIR

As to `Cc1c(-c2ccccc2)nn(C)c1Nc1nc2cc(C(=O)O)ccc2c2cnccc12`, the IC50 was more than 10 µM with K-562, 2.34 µM in experiment [1] and 1.43 µM with MV-4-11. The inhibition at 0.5 µM at recombinant human PIM1 is 26.2%; on recombinant human CK2 it was 76.2%.

`O=C(O)c1ccc2c(c1)nc(Nc1cccc3ncccc13)c1ccncc12`: the IC50 with K-562 is more than 10 µM; on recombinant human PIM1 it was 281 nM; in experiment [1], more than 10 µM; with MV-4-11 it was more than 10 µM. The values for the inhibition at 0.5 µM at recombinant human PIM1 and on recombinant human CK2 were 79.1% and 101%, respectively.

Consider `O=C(O)c1ccc2c(c1)nc(Nc1cccc3ccccc13)c1ccncc12`, for which the IC50 (in the experiment with K-562; in experiment [1]; in the experiment on MV-4-11) was more than 10 µM throughout. Further, the results for the inhibition at 0.5 µM at recombinant human PIM1 and at recombinant human CK2 were 35.7% and 93.1%, respectively.

Turning to `CCn1c2ccccc2c2cc(Nc3nc4cc(C(=O)O)ccc4c4cnccc34)ccc21`, the IC50 amounted to 0.11 µM in the experiment on K-562, 9.82 µM in experiment [1] and 3.28 µM in the experiment with MV-4-11. For the same molecule, the inhibition at 0.5 µM at recombinant human PIM1 was determined as 32.6%; at recombinant human CK2 it was 98.1%.

For `Cn1cnnc1-c1cccc(Nc2nc3cc(C(=O)O)ccc3c3cnccc23)c1`, the IC50 is more than 10 µM with K-562, 344 nM at recombinant human PIM1, more than 10 µM in experiment [1] and more than 10 µM in the experiment with MV-4-11. Also, the figures for the inhibition at 0.5 µM at recombinant human PIM1 and at recombinant human CK2 were 54.9% and 94.4%, respectively.

Consider `Cc1ccc(Nc2nc3cc(C(=O)O)ccc3c3cnccc23)cc1`, for which the IC50 in the experiment with K-562 is 0.132 µM; on recombinant human PIM1, 478 nM; in experiment [1] it was more than 10 µM; in the experiment on MV-4-11, 9.31 µM. For the same molecule, the inhibition at 0.5 µM on recombinant human PIM1 came out at 60.6%; on recombinant human CK2, 98%.

As for `CCN(c1ccccc1)c1nc2cc(C(=O)O)ccc2c2cnccc12`, the IC50 in the experiment on K-562 was 0.339 µM; in experiment [1] it was more than 10 µM; in the experiment on MV-4-11 it was more than 10 µM. For the same molecule, the inhibition at 0.5 µM stood at 28% on recombinant human PIM1 and 91.8% on recombinant human CK2.

With `Nc1ccc(CCNc2nc3cc(C(=O)O)ccc3c3cnccc23)cc1`, the IC50 was more than 10 µM in the experiment on K-562, 321 nM on recombinant human PIM1, more than 10 µM in experiment [1] and more than 10 µM with MV-4-11. In addition, the inhibition at 0.5 µM at recombinant human PIM1 was 81.8%; on recombinant human CK2, 100%.

`O=C(O)c1ccc2c(c1)nc(Nc1cccc(Cl)c1)c1cccnc12`: the IC50 was more than 10 µM with K-562, 634 nM on recombinant human PIM1, more than 10 µM in experiment [1] and more than 10 µM with MV-4-11. The inhibition at 0.5 µM on recombinant human PIM1 was 59.9%; at recombinant human CK2 it was 61.1%.

For the molecule `O=C(O)c1ccc2c(c1)nc(Nc1ccc(F)c(Cl)c1)c1cccnc12`, the IC50 (in the experiment on K-562; in experiment [1]; in the experiment with MV-4-11) was more than 10 µM throughout. The inhibition at 0.5 µM at recombinant human PIM1 was found to be 22.1%; on recombinant human CK2, 19.6%.

As to `C#Cc1cccc(Nc2nc3cc(C(=O)O)ccc3c3ncccc23)c1`, the IC50 (in the experiment on K-562; in experiment [1]; with MV-4-11) was more than 10 µM throughout. The values for the inhibition at 0.5 µM at recombinant human PIM1 and at recombinant human CK2 were 34.9% and 77.5%, respectively.

For the molecule `O=C(O)c1ccc2c(c1)nc(Nc1ccccc1)c1cccnc12`, the IC50 (with K-562; in experiment [1]; in the experiment on MV-4-11) was more than 10 µM in each case. In addition, the inhibition at 0.5 µM on recombinant human PIM1 came to 34.7%; at recombinant human CK2 it was 25.5%.

Consider `O=C(O)c1ccc2c(c1)nc(NCCc1ccccc1)c1cccnc12`, for which the IC50 (in the experiment on K-562; in experiment [1]; with MV-4-11) was more than 10 µM each time. For the same molecule, the inhibition at 0.5 µM on recombinant human PIM1 amounted to 13.7%; on recombinant human CK2 it was 5.71%.

Consider `O=C(O)c1ccc2c(c1)nc(Nc1cccc(F)c1)c1cccnc12`, for which the IC50 (in the experiment with K-562; in experiment [1]; in the experiment with MV-4-11) was more than 10 µM in each case. Besides, the inhibition at 0.5 µM was 37.8% on recombinant human PIM1 and 35% at recombinant human CK2.

In the case of `CNc1ncc2c(n1)c(N(C)c1ccccc1)nc1cc(C(=O)O)ccc12`, the IC50 in the experiment with K-562 is more than 10 µM; on recombinant human PIM1 it was 147 nM; in experiment [1] it was more than 10 µM; in the experiment with MV-4-11 it was more than 10 µM. Also, the inhibition at 0.5 µM stood at 86.6% on recombinant human PIM1 and 94.5% at recombinant human CK2.

On to `CN(C)c1ncc2c(n1)c(N(C)c1ccccc1)nc1cc(C(=O)O)ccc12`, for which the IC50 (in the experiment with K-562; in experiment [1]; in the experiment with MV-4-11) was more than 10 µM each time. Moreover, the inhibition at 0.5 µM on recombinant human PIM1 turned out to be 12.2%; on recombinant human CK2, 14%.

As for `CC(C)Nc1ncc2c(n1)c(N(C)c1ccccc1)nc1cc(C(=O)O)ccc12`, the IC50 (in the experiment with K-562; in experiment [1]; in the experiment on MV-4-11) was more than 10 µM throughout. The inhibition at 0.5 µM at recombinant human PIM1 was found to be 39.9%; at recombinant human CK2 it was 91.7%.

As to `CCOCCNc1ncc2c(n1)c(N(C)c1ccccc1)nc1cc(C(=O)O)ccc12`, the IC50 in the experiment on K-562 was more than 10 µM; on recombinant human PIM1, 649 nM; in experiment [1], more than 10 µM; in the experiment with MV-4-11 it was more than 10 µM. Moreover, the results for the inhibition at 0.5 µM at recombinant human PIM1 and at recombinant human CK2 were 54.9% and 79.4%, respectively.

For the molecule `c1ccc(Nc2nc3ccccc3c3cnccc23)cc1`, the IC50 in the experiment with K-562 was more than 10 µM; in experiment [1], more than 10 µM; in the experiment on MV-4-11, 7.04 µM. The inhibition at 0.5 µM was determined as 7% at recombinant human PIM1 and 0.786% at recombinant human CK2.

`Clc1nc2ccccc2c2cnccc12`: the IC50 (with K-562; in experiment [1]; in the experiment with MV-4-11) was more than 10 µM throughout. In addition, the inhibition at 0.5 µM is -2.61% on recombinant human PIM1 and 9.99% on recombinant human CK2.

Take `O=C(O)c1ccc2c(c1)nc(Nc1ccc(Br)cc1)c1ccncc12`: the IC50 with K-562 is more than 10 µM; at recombinant human PIM1, 365 nM; in experiment [1], more than 10 µM; with MV-4-11, 5.9 µM. Further, the inhibition at 0.5 µM on recombinant human PIM1 worked out at 76.7%; on recombinant human CK2 it was 97.8%.

Take `O=C(O)c1ccc2c(c1)nc(Nc1ccc3ncccc3c1)c1ccncc12`: the IC50 with K-562 is more than 10 µM; at recombinant human PIM1, 89 nM; in experiment [1], more than 10 µM; in the experiment with MV-4-11 it was 3.2 µM. Besides, the figures for the inhibition at 0.5 µM at recombinant human PIM1 and on recombinant human CK2 were 93.9% and 101%, respectively.

In the case of `CN(c1cccc(Cl)c1)c1nc2cc(C(=O)O)ccc2c2cnccc12`, the IC50 (in the experiment on K-562; in experiment [1]; in the experiment on MV-4-11) was more than 10 µM in each case. Further, the figures for the inhibition at 0.5 µM on recombinant human PIM1 and at recombinant human CK2 were 34.8% and 89.6%, respectively.

As for `O=C(O)c1ccc2c(c1)nc(Nc1ccc3cn[nH]c3c1)c1ccncc12`, the IC50 is more than 10 µM in the experiment with K-562, 228 nM at recombinant human PIM1, more than 10 µM in experiment [1] and more than 10 µM with MV-4-11. Also, the inhibition at 0.5 µM at recombinant human PIM1 worked out at 75.1%; at recombinant human CK2, 101%.

Take `N#Cc1cc(F)cc(Nc2nc3cc(C(=O)O)ccc3c3cnccc23)c1`: the IC50 with K-562 is more than 10 µM; on recombinant human PIM1 it was 96 nM; in experiment [1], more than 10 µM; in the experiment on MV-4-11 it was more than 10 µM. In addition, the inhibition at 0.5 µM was found to be 94.6% on recombinant human PIM1 and 101% on recombinant human CK2.

Regarding `CNc1ccc(C#N)cc1Nc1nc2cc(C(=O)O)ccc2c2cnccc12`, the results for the IC50 (in the experiment on K-562; in experiment [1]; in the experiment with MV-4-11) were more than 10 µM, more than 10 µM and 6.15 µM, respectively. Besides, the results for the inhibition at 0.5 µM on recombinant human PIM1 and at recombinant human CK2 were 19% and 65%, respectively.

Consider `O=C(O)c1ccc2c(c1)nc(NCCc1ccccc1)c1cnccc12`, for which the IC50 (in the experiment on K-562; in experiment [1]; in the experiment with MV-4-11) was more than 10 µM throughout. The values for the inhibition at 0.5 µM at recombinant human PIM1 and on recombinant human CK2 were 42.2% and -0.531%, respectively.

Consider `O=C(O)c1ccc2c(c1)nc(Nc1ccc(F)c(Cl)c1)c1cnccc12`, for which the IC50 (with K-562; in experiment [1]; with MV-4-11) was more than 10 µM each time. Moreover, the inhibition at 0.5 µM came out at 10.8% on recombinant human PIM1 and 1.69% on recombinant human CK2.

With `O=C(O)c1ccc2c(c1)nc(Nc1ccccc1)c1cnccc12`, the IC50 (in the experiment on K-562; in experiment [1]; with MV-4-11) was more than 10 µM throughout. For the same molecule, the inhibition at 0.5 µM at recombinant human PIM1 was -22.8%; on recombinant human CK2, -40.3%.

In the case of `CCN1CCC[C@@H]1CNc1nc2cc(-c3nnn[nH]3)ccc2c2sccc12`, the IC50 in the experiment with K-562 was more than 10 µM; at recombinant human PIM1, 65 nM; in experiment [1], more than 10 µM; in the experiment with MV-4-11, more than 10 µM. For the same molecule, the inhibition at 0.5 µM is 89.9% on recombinant human PIM1 and 78.1% at recombinant human CK2.

Consider `CCN1CCC[C@H]1CNc1nc2cc(-c3nnn[nH]3)ccc2c2sccc12`, for which the IC50 in the experiment with K-562 is more than 10 µM; at recombinant human PIM1 it was 118 nM; in experiment [1], more than 10 µM; with MV-4-11 it was more than 10 µM. Further, the inhibition at 0.5 µM at recombinant human PIM1 was 84.1%; on recombinant human CK2, 59.8%.

Turning to `CN(C)CCNc1nc2cc(-c3nnn[nH]3)ccc2c2sc(-c3ccccc3)cc12`, the IC50 (with K-562; in experiment [1]; in the experiment with MV-4-11) was more than 10 µM each time. In addition, the inhibition at 0.5 µM was -14.8% at recombinant human PIM1 and 0.269% at recombinant human CK2.

Take `N#Cc1ccc2c(c1)nc(Cl)c1sccc12`: the IC50 (in the experiment on K-562; in experiment [1]; with MV-4-11) was more than 10 µM each time. In addition, the inhibition at 0.5 µM at recombinant human PIM1 is -23.9%; at recombinant human CK2, -11.5%.

Consider `Clc1cccc(Nc2nc3cc(-c4nnn[nH]4)ccc3c3ccsc23)c1`, for which the figures for the IC50 (in the experiment with K-562; in experiment [1]; with MV-4-11) were more than 10 µM, more than 10 µM and 4.47 µM, respectively. Moreover, the figures for the inhibition at 0.5 µM on recombinant human PIM1 and at recombinant human CK2 were 31.9% and 56.2%, respectively.
